In patent publication US4578400A, “Therapeutic composition and method for treatment of cardiovascular diseases” (priority 1982, dated 1986):

Key:
[1] = system: chloroform-induced arrhythmia (ventricular fibrillation); assay: Effect on chloroform-induced arrhythmia; format: in vivo, male ddy mice; conditions: for Percent occurrence of ventricular fibrillation: control 100; for anti-arrhythmic potency compared with lidocaine (in words): 100 mg/kg oral vs lidocaine 10 mg/kg i.p.
Description: When they stopped breathing, they were thoracotomized to examine the occurrence of ventricular fribrillation. The results are noted in Table 2 as percent occurrence of ventricular fibrillation.

Acute toxicity = conditions: one week observation
Description: Male ddy mice weighing about 25 g were divided into groups of 10 animals and orally administered once with 3 g/kg of 5--HDA, 5--HDA--Na, 5--HDAE, 5--HDA--DHP or δ-DL, or intraperitoneally injected once with 1 g/kg of said compounds.

[2] = Solubility (physicochemical properties, Table 1)
[3] = system: ouabain induced arrhythmia; assay: Effect on ouabain induced arrhythmia; format: in vivo, male hartley guinea pigs; conditions: for relative time for extrasystole to occur / relative time for ventricular fibrillation to occur / relative time for cardiac arrest to occur: control = 100; for relative time for ventricular fibrillation to occur: *P < 0.05; for antiarrhythmic effects (in words): ouabain induced arrhythmia
Description: Effect on ouabain induced arrhythmia
The procedure described in Matsubara et al. (Folia Pharmacologica Japonica, 72, 557-571, 1976) was followed.
Male hartley guinea pigs were divided into groups of 8 animals and anesthetized with intraperitoneal urethane. Three groups were orally administered 5--HDA--Na, 5--HDAE and 5--HDA--DHP dissolved in distilled water. Another group was intravenously injected with 5--HDA--Na dissolved in physiological saline. One group was orally administered δ-DL emulsified in 5% aqueous arabic gum solution. One group was injected intravenously with lidocaine dissolved in physiological saline. For the respective routes of administration, control groups were administered the solvents used in administration of the test compounds. Thirty minutes after the oral administration and one minute after the intravenous injection, ouabain was infused into the jugular vein at a rate of 5 μg/kg/min until extrasystole, ventricular fibrillation and cardiac arrest appeared on a standard limb lead II of ECG. The results are shown in Table 3, with the time necessary for the respective symptoms to occur in the control groups taken as 100.

[4] = Lowering serum lipid levels in Triton-induced hyperlipidemic rats; format: in vivo, male Wistar rats; conditions: for inhibition rate, total cholesterol (serum) / inhibition rate, triglyceride (serum): 100 mg/kg oral, four times, against control, 10 hours after Triton WR-1339, *P < 0.05; for antilipidemic effects compared with Clofibrate (in words): 100 mg/kg, oral
Description: After 10 hours, blood samples were drawn to determine the serum levels of total cholesterol and triglyceride.

[5] = target: T1, 3-hydroxy-3-methylglutaryl coenzyme A (HMG-Co A) reductase (Rattus norvegicus, UniProt P51639); assay: Inhibition of HMG-CoA reductase activity; format: biochemical, rat (liver microsome); conditions: rat liver microsome; read-out: IC30 (amount necessary for inhibiting the enzymatic activity by 30%)
T1 sequence (P51639 1-887): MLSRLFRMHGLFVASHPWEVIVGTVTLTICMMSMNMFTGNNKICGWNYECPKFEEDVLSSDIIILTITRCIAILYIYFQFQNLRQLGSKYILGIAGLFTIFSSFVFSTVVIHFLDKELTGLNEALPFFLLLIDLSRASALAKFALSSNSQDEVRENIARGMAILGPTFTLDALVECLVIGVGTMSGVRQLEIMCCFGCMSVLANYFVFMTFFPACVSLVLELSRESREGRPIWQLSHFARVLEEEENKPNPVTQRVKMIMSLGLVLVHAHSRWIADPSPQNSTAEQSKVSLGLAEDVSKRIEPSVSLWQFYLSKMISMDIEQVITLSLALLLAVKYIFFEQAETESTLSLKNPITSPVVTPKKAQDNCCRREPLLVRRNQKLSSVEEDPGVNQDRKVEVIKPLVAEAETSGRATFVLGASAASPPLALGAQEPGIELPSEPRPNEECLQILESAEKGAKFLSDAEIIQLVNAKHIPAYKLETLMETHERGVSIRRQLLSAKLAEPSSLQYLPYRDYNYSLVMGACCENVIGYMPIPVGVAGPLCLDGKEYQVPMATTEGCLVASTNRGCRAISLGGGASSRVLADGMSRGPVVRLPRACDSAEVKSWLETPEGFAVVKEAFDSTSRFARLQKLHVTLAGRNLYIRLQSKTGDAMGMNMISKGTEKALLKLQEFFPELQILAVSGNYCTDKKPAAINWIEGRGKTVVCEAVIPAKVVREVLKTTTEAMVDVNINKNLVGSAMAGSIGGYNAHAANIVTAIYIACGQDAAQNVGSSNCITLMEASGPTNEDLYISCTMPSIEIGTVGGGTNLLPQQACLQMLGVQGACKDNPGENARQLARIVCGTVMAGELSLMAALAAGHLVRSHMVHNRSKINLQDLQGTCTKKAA
Description: Inhibition of the activity of 3-hydroxy-3-methylglutaryl coenzyme A (HMG-Co A) reductase

[6] = system: ventricular fibrillation after coronary artery ligation; assay: Antiarrhythmic effects on myocardial infarction (coronary ligation); format: in vivo, dogs; conditions: before ligation = 100, control 41
Description: Antiarrhythmic effects on myocardial infarction
The method described by Shinohara (Jap. Circul. J., 32, 1269-1281, 1968) was used. Dogs were divided into groups of 5 animals, anesthetized with intravenous pentobarbital and were thoracotomized under artificial respiration, and a platinum bipolar electrode was inserted on the wall of the right atrium. Then the sinus node was crushed and the animals were subjected to pacing (2.5 Hz, 3 msec, 3.5-8 V) with an electronic stimulator. The left anterior descending coronary artery was doubly ligated at a site 2 cm away from its origin (A. S. Harris, Circulation, 1, 1318, 1950). Then 5--HDA--Na and lidocaine were injected into the femoral vein of the respective dogs. Using an electrode inserted in an ischemic zone in the left ventricle, the animals were given 15 to 20 successive electrical shocks before the ligation and 30 minutes after the ligation and administration. The threshold level necessary for inducing ventricular fibrillation was determined for each group of animals and shown in Table 4, with the values before the ligation taken as 100.

[7] = system: chloroform-induced arrhythmia (ventricular fibrillation); conditions: stated without own data; cited from earlier work
[8] = Lowering serum cholesterol levels in hyperlipidemic rabbits; format: in vivo, male Japanese white rabbits; conditions: 100 mg/kg oral daily for 7 days
Description: Male Japanese white rabbits weighing about 2.5 kg were fed on a solid diet containing 1% cholesterol (RC-4, Nippon Crea Co., Ltd.) for 10 weeks until hypercholesterolemia fully developed. The rabbits were then divided into groups of 5 animals, and 5--HDA--Na or δ-DL was orally admininistered daily for 7 days, either as a solution or as an emulsion in 5% aqueous arabic gum. Three hours after the last administration, blood was drawn to determine the serum level of cholesterol.

[9] = 100 mg/kg, oral, 15 min before chloroform, *P < 0.05
[10] = oral, 100 mg/kg, *P < 0.05 where starred

Row | Compound | anti-arrhythmic potency compared with lidocaine (in words) [1] | anti-arrhythmic effects (in words) ([1]; 100 mg/kg, oral) | Percent occurrence of ventricular fibrillation [1, 9] | acute toxicity: abnormality (Acute toxicity; 1 g/kg intraperitoneal once) | acute toxicity: death (Acute toxicity; 1 g/kg intraperitoneal once) | acute toxicity: abnormality (Acute toxicity; 3 g/kg oral once) | acute toxicity: death (Acute toxicity; 3 g/kg oral once) | solubility in acetone [2] | solubility in benzene [2] | solubility in chloroform [2] | solubility in methanol [2] | solubility in water [2] | relative time for extrasystole to occur ([3]; oral, 100 mg/kg) | relative time for ventricular fibrillation to occur ([3]; oral, 100 mg/kg) | relative time for cardiac arrest to occur [3, 10] | antiarrhythmic effects (in words) [3] | inhibition rate, total cholesterol (serum) [4] [%] | inhibition rate, triglyceride (serum) [4] [%] | antilipidemic effects compared with Clofibrate (in words) [4] | further results
1 | CCCCCC(O)CCCC(=O)O (stereo not shown) [5-HDA, 5-hydroxy-decanoic acid] | more potent than lidocaine | significant anti-arrhythmic effects | 30 | no abnormality occurred | no animal died | no abnormality occurred | no animal died | easily | easily | easily | easily | sparingly |  |  |  |  |  |  |  | Percent occurrence of ventricular fibrillation ([1]; 50 mg/kg, oral, 15 min before chloroform): 60
2 | CCCCCC(O)CCCC(=O)OCC(O)CO (stereo not shown) [5-HDA-DHP, 2',3'-dihydroxy-propyl-5-hydroxydecanoate] | more potent than lidocaine | significant anti-arrhythmic effects | 20 | no abnormality occurred | no animal died | no abnormality occurred | no animal died | easily |  | easily | easily | soluble | 193 | 139 | 122 | significant antiarrhythmic effects | 19 | 18 | equipotent to or stronger than the effect of the known anti-lipidemic agent, Clofibrate | 
3 | CCCCCC(O)CCCC(=O)OCC (stereo not shown) [5-HDAE, Ethyl-5-hydroxy-decanoate] | more potent than lidocaine | significant anti-arrhythmic effects | 30 | no abnormality occurred | no animal died | no abnormality occurred | no animal died | easily | easily | easily | easily | sparingly | 151 | 146 | 132 | significant antiarrhythmic effects | 19 | 17 | equipotent to or stronger than the effect of the known anti-lipidemic agent, Clofibrate | 
4 | CCOC(=O)C(C)(C)Oc1ccc(Cl)cc1 [Clofibrate, reference compound] |  |  |  |  |  |  |  |  |  |  |  |  |  |  |  |  | 14 | 16 |  | 
5 | CC[C@H](C)C(=O)O[C@H]1CCC=C2C=C[C@H](C)[C@H](CC[C@@H]3C[C@@H](O)CC(=O)O3)[C@H]21 [Compactin, reference compound] |  |  |  |  |  |  |  |  |  |  |  |  |  |  |  |  |  |  |  | IC30 [5]: 30 µM
6 | CCN(CC)CC(=O)Nc1c(C)cccc1C [Lidocaine, reference compound] |  |  |  |  |  |  |  |  |  |  |  |  |  |  |  |  |  |  |  | Percent occurrence of ventricular fibrillation ([1]; 10 mg/kg, intraperitoneally 5 minutes before chloroform): 40; relative time for cardiac arrest to occur ([3]; i.v., 10 mg/kg): 118; relative time for extrasystole to occur ([3]; i.v., 10 mg/kg): 133; relative time for ventricular fibrillation to occur ([3]; i.v., 10 mg/kg): 129; Threshold level for inducing ventricular fibrillation, 30 min after ligation ([6]; 0.3 mg/kg i.v.): 68; Threshold level for inducing ventricular fibrillation, 30 min after ligation ([6]; 1.0 mg/kg i.v., *P < 0.05): 84; effectiveness by oral administration (in words) [7]: not effective by oral administration
7 | CCCCCC1CCCC(=O)O1 (stereo not drawn) [δ-DL, δ-decalactone] | more potent than lidocaine | significant anti-arrhythmic effects | 30 | no abnormality occurred | no animal died | no abnormality occurred | no animal died | easily | easily | easily | easily | insoluble | 157 | 137 | 140 | significant antiarrhythmic effects | 23 | 11 | equipotent to or stronger than the effect of the known anti-lipidemic agent, Clofibrate | serum level of total cholesterol (in words) [8]: lowered the serum level of total cholesterol; Total serum cholesterol ([8]; 3 h after last administration, control 1,394, *P < 0.05): 1,141 mg/dl; solubility in hexane ([2]; hexane): easily
